# Measurements reported in PubChem BioAssay (NCI).
#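 Compound exposure: 48 hours, 5 concentrations, 96-well plates. GI50 = concentration required for 50% inhibition of growth. TGI marks complete inhibition of growth.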
# Tests used:
# Assay in all cases: DTP human tumour cell line panel, 48 h
# OVCAR-8 ovarian = tested on: OVCAR-8 ovarian
# MALME-3M melanoma = tested on: MALME-3M melanoma
# OVCAR-3 ovarian = tested on: OVCAR-3 ovarian
# K-562 leukemia = tested on: K-562 leukemia
# A498 renal = tested on: A498 renal
# HOP-62 NSCLC = tested on: HOP-62 NSCLC
# MOLT-4 leukemia = tested on: MOLT-4 leukemia
# IGROV1 ovarian = tested on: IGROV1 ovarian
# SK-OV-3 ovarian = tested on: SK-OV-3 ovarian
# NCI-H522 lung = tested on: NCI-H522 lung
# MCF7 breast = tested on: MCF7 breast
# SK-MEL-2 melanoma = tested on: SK-MEL-2 melanoma
# M14 melanoma = tested on: M14 melanoma
# HCT-116 colon = tested on: HCT-116 colon
# A549 NSCLC = tested on: A549 NSCLC
# T-47D breast = tested on: T-47D breast
# COLO 205 colon = tested on: COLO 205 colon
# SK-MEL-28 melanoma = tested on: SK-MEL-28 melanoma
# BT-549 breast = tested on: BT-549 breast
# UACC-257 melanoma = tested on: UACC-257 melanoma
# SF-295 CNS = tested on: SF-295 CNS
# NCI-H23 lung = tested on: NCI-H23 lung
# RXF 393 renal = tested on: RXF 393 renal
# SR leukemia = tested on: SR leukemia
# NCI/ADR-RES ovarian = tested on: NCI/ADR-RES ovarian
# LOX IMVI melanoma = tested on: LOX IMVI melanoma
# U251 CNS = tested on: U251 CNS
# MDA-MB-231 breast = tested on: MDA-MB-231 breast
# RPMI-8226 leukemia = tested on: RPMI-8226 leukemia
# SF-539 CNS = tested on: SF-539 CNS
compound,measurement,setting,value
S=C(Nc1ccc(OCc2nc3ccc(Cl)cc3[nH]2)cc1)NC1CCCCC1,GI50,OVCAR-8 ovarian,13.1 µM
same,TGI,OVCAR-8 ovarian,28.5 µM
same,GI50,MALME-3M melanoma,11.6 µM
same,TGI,MALME-3M melanoma,23.8 µM
same,GI50,OVCAR-3 ovarian,4.44 µM
same,TGI,OVCAR-3 ovarian,18.8 µM
same,GI50,K-562 leukemia,3.57 µM
same,TGI,K-562 leukemia,15.1 µM
same,GI50,A498 renal,11.2 µM
same,TGI,A498 renal,23.8 µM
same,GI50,HOP-62 NSCLC,12.3 µM
same,TGI,HOP-62 NSCLC,26.4 µM
same,GI50,MOLT-4 leukemia,4.01 µM
same,TGI,MOLT-4 leukemia,13.9 µM
same,GI50,IGROV1 ovarian,6.95 µM
same,TGI,IGROV1 ovarian,20.2 µM
same,GI50,SK-OV-3 ovarian,13.4 µM
same,TGI,SK-OV-3 ovarian,27 µM
same,GI50,NCI-H522 lung,2.9 µM
same,TGI,NCI-H522 lung,12.6 µM
same,GI50,MCF7 breast,2.87 µM
same,TGI,MCF7 breast,12.4 µM
same,GI50,SK-MEL-2 melanoma,11.4 µM
same,TGI,SK-MEL-2 melanoma,24.5 µM
same,GI50,M14 melanoma,6.73 µM
same,TGI,M14 melanoma,22.5 µM
same,GI50,HCT-116 colon,5.99 µM
same,TGI,HCT-116 colon,21.5 µM
same,GI50,A549 NSCLC,6.51 µM
same,TGI,A549 NSCLC,21.6 µM
same,GI50,T-47D breast,7.75 µM
same,TGI,T-47D breast,26.2 µM
same,GI50,COLO 205 colon,10.2 µM
same,TGI,COLO 205 colon,27.6 µM
same,GI50,SK-MEL-28 melanoma,12.1 µM
same,TGI,SK-MEL-28 melanoma,24.5 µM
same,GI50,BT-549 breast,15 µM
same,TGI,BT-549 breast,29.1 µM
same,GI50,UACC-257 melanoma,7.53 µM
same,TGI,UACC-257 melanoma,21.6 µM
same,GI50,SF-295 CNS,9.72 µM
same,TGI,SF-295 CNS,22.9 µM
same,GI50,NCI-H23 lung,8.56 µM
same,TGI,NCI-H23 lung,21.4 µM
same,GI50,RXF 393 renal,6.21 µM
same,TGI,RXF 393 renal,20.5 µM
same,GI50,SR leukemia,2.61 µM
same,TGI,SR leukemia,8.45 µM
same,GI50,NCI/ADR-RES ovarian,9.57 µM
same,TGI,NCI/ADR-RES ovarian,25.3 µM
same,GI50,LOX IMVI melanoma,2.83 µM
same,TGI,LOX IMVI melanoma,11.5 µM
same,GI50,U251 CNS,11.7 µM
same,TGI,U251 CNS,24.8 µM
same,GI50,MDA-MB-231 breast,7.42 µM
same,TGI,MDA-MB-231 breast,20.4 µM
same,GI50,RPMI-8226 leukemia,7.09 µM
same,TGI,RPMI-8226 leukemia,41.8 µM
same,GI50,SF-539 CNS,12.1 µM
